In ChEMBL document CHEMBL4359908, “Structure-activity relationship with pyrazoline-based aromatic sulfamates as carbonic anhydrase isoforms I, II, IX and XII inhibitors: Synthesis and biological evaluation” (Eur J Med Chem, 2019):

Tests used:
Carbonic anhydrase 2 = Carbonic anhydrase 2 (Homo sapiens, UniProt P00918); assay: Inhibition of human carbonic anhydrase 2 assessed as inhibitory constant incubated for 15 mins by phenol red dye based stopped flow assay
Carbonic anhydrase 9 [1] = target: T1, Carbonic anhydrase 9 (Homo sapiens, UniProt Q16790); assay: Inhibition of human carbonic anhydrase 9 assessed as inhibitory constant incubated for 15 mins by phenol red dye based stopped flow assay
Carbonic anhydrase 1 = Carbonic anhydrase 1 (Homo sapiens, UniProt P00915); assay: Inhibition of human carbonic anhydrase 1 assessed as inhibitory constant incubated for 15 mins by phenol red dye based stopped flow assay
Chain of Carbonic anhydrase 1 (P00915 whole entry): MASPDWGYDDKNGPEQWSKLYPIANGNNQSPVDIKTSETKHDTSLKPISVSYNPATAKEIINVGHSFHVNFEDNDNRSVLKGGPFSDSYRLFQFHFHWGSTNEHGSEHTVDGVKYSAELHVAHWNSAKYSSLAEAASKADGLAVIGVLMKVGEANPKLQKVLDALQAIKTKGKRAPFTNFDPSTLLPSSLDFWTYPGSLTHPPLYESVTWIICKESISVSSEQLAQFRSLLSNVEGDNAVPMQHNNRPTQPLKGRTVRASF

Carbonic anhydrase 12 [2] = target: T2, Carbonic anhydrase 12 (Homo sapiens, UniProt O43570); assay: Inhibition of human carbonic anhydrase 12 assessed as inhibitory constant incubated for 15 mins by phenol red dye based stopped flow assay
T2 sequence (O43570 whole entry): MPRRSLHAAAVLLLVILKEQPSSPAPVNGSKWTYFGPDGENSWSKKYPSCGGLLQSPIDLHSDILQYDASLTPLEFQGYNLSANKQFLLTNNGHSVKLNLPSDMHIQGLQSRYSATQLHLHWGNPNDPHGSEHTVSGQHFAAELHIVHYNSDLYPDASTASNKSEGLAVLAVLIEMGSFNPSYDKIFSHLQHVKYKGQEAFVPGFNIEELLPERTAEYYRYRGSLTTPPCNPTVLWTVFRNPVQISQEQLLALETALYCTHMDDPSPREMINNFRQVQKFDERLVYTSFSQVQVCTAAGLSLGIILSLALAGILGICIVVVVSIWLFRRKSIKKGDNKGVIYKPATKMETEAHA

Carbonic anhydrase 9 [3] = target: T1, Carbonic anhydrase 9; conditions: at 1 µM
Description: Inhibition of human carbonic anhydrase 9 assessed as reduction in CO2 hydration at 10^-6 M incubated for 15 mins by phenol red dye based stopped flow assay relative to control (Rvb = 0 %)

Carbonic anhydrase 9 [4] = target: T1, Carbonic anhydrase 9; conditions: at 0.001 µM
Description: Inhibition of human carbonic anhydrase 9 assessed as reduction in CO2 hydration at 10^-9 M incubated for 15 mins by phenol red dye based stopped flow assay relative to control (Rvb = 0 %)

Carbonic anhydrase 9 [5] = target: T1, Carbonic anhydrase 9; conditions: at 0.1 µM
Description: Inhibition of human carbonic anhydrase 9 assessed as reduction in CO2 hydration at 10^-7 M incubated for 15 mins by phenol red dye based stopped flow assay relative to control (Rvb = 0 %)

Carbonic anhydrase 12 [6] = target: T2, Carbonic anhydrase 12; conditions: at 0.1 µM
Description: Inhibition of human carbonic anhydrase 12 assessed as reduction in CO2 hydration at 10^-7 M incubated for 15 mins by phenol red dye based stopped flow assay relative to control (Rvb = 0 %)

Carbonic anhydrase 9 [7] = target: T1, Carbonic anhydrase 9; conditions: at 0.01 µM
Description: Inhibition of human carbonic anhydrase 9 assessed as reduction in CO2 hydration at 10^-8 M incubated for 15 mins by phenol red dye based stopped flow assay relative to control (Rvb = 0 %)

Carbonic anhydrase 12 [8] = target: T2, Carbonic anhydrase 12; conditions: at 0.01 µM
Carbonic anhydrase 12 [9] = target: T2, Carbonic anhydrase 12; conditions: at 1 µM
Description: Inhibition of human carbonic anhydrase 12 assessed as reduction in CO2 hydration at 10^-6 M incubated for 15 mins by phenol red dye based stopped flow assay relative to control (Rvb = 0 %)

Carbonic anhydrase 12 [10] = target: T2, Carbonic anhydrase 12; conditions: at 0.001 µM

Compound | Ki (Carbonic anhydrase 2) [nM] | Ki (Carbonic anhydrase 9 [1]) [nM] | Ki (Carbonic anhydrase 1) [nM] | Ki (Carbonic anhydrase 12 [2]) [nM] | other results
CC(=O)N1N=C(c2ccc(OS(N)(=O)=O)cc2)CC1c1ccc(C)cc1 (configuration not stated) | 6.5 | 7.1 | 817 | 22.3 | –
CC(=O)N1N=C(c2ccc([N+](=O)[O-])cc2)CC1c1ccc(OS(N)(=O)=O)cc1 (configuration not stated) | 9.5 | 15 | 3820 | 0.88 | –
CC(=O)N1N=C(c2ccc(Cl)cc2)CC1c1ccc(OS(N)(=O)=O)cc1 (configuration not stated) | 19.5 | 8.3 | 970 | 29.5 | –
CC(=O)N1N=C(c2cccc(OS(N)(=O)=O)c2)CC1c1ccc(F)cc1 (configuration not stated) | 38 | 8.4 | 67.4 | 13.5 | –
CC(=O)N1N=C(c2ccc(Cl)c(Cl)c2)CC1c1cccc(OS(N)(=O)=O)c1 (configuration not stated) | 54.8 | 15.5 | 8170 | 85.2 | –
CC(=O)N1N=C(c2cccc(OS(N)(=O)=O)c2)CC1c1ccc(Cl)cc1 (configuration not stated) | 14.7 | 6.9 | 438 | 9.3 | –
CC(=O)N1N=C(c2cccc(OS(N)(=O)=O)c2)CC1c1ccc(Cl)cc1Cl (configuration not stated) | 195 | 13.8 | 1410 | 33.8 | –
CC(=O)N1N=C(c2ccc(OS(N)(=O)=O)cc2)CC1c1cccc(Cl)c1 (configuration not stated) | 0.87 | 0.72 | 2310 | 9.8 | –
CC(=O)N1N=C(c2ccc(OS(N)(=O)=O)cc2)CC1c1ccccc1Cl (configuration not stated) | 9 | 25.9 | 8250 | – | –
CC(=O)N1N=C(c2ccc(Cl)cc2)CC1c1cccc(OS(N)(=O)=O)c1 (configuration not stated) | 32.7 | 0.81 | 2140 | 22.3 | –
CC(=O)N1N=C(c2ccc(OS(N)(=O)=O)cc2)CC1c1ccc(Cl)cc1 (configuration not stated) | 6 | 6.9 | 1140 | 27.3 | –
CC(=O)N1N=C(c2ccccc2)CC1c1cccc(OS(N)(=O)=O)c1 (configuration not stated) | 16.5 | 13.1 | 755 | 22.9 | –
CC(=O)N1N=C(c2ccc(C)cc2)CC1c1ccc(OS(N)(=O)=O)cc1 (configuration not stated) | 9.9 | 22.4 | 2340 | 7.7 | –
CC(=O)N1N=C(c2ccc(OS(N)(=O)=O)cc2)CC1c1ccc([N+](=O)[O-])cc1 (configuration not stated) | 1.2 | 74.3 | 3210 | – | –
CC(=O)N1N=C(c2ccc(OS(N)(=O)=O)cc2)CC1c1c(Cl)cccc1Cl (configuration not stated) | 13.2 | 33.4 | 4080 | 43.7 | –
CC(=O)N1N=C(c2ccccc2)CC1c1ccc(OS(N)(=O)=O)cc1 (configuration not stated) | 44.8 | 45.1 | 645 | 10.6 | inhibition (Carbonic anhydrase 9 [3]): 81%; inhibition (Carbonic anhydrase 9 [4]): 16%; inhibition (Carbonic anhydrase 9 [5]): 69%; inhibition (Carbonic anhydrase 12 [6]): 77%; inhibition (Carbonic anhydrase 9 [7]): 42%; inhibition (Carbonic anhydrase 12 [8]): 49%; inhibition (Carbonic anhydrase 12 [9]): 89%; inhibition (Carbonic anhydrase 12 [10]): 15%
CC(=O)N1N=C(c2ccc(Cl)cc2Cl)CC1c1cccc(OS(N)(=O)=O)c1 (configuration not stated) | 12 | 48.7 | 6940 | 30.8 | –
CC(=O)N1N=C(c2ccc(Cl)c(Cl)c2)CC1c1ccc(OS(N)(=O)=O)cc1 (configuration not stated) | 27.6 | 7.7 | 2900 | 12.9 | –
CC(=O)N1N=C(c2cccc(OS(N)(=O)=O)c2)CC1c1ccc(C)cc1 (configuration not stated) | 71.2 | 29.4 | 558 | 55.9 | –
CC(=O)N1N=C(c2ccc(OS(N)(=O)=O)cc2)CC1c1cccc2ccccc12 (configuration not stated) | 27.5 | 49 | 3300 | 56.4 | –

Compound | Ki (Carbonic anhydrase 2) [nM] | Ki (Carbonic anhydrase 9 [1]) [nM] | Ki (Carbonic anhydrase 1) [nM] | Ki (Carbonic anhydrase 12 [2]) [nM] | other results
CC(=O)N1N=C(c2cccc(OS(N)(=O)=O)c2)CC1c1cc(Cl)ccc1Cl (configuration not stated) | 92.6 | 58.9 | 2040 | 34.2 | –
CC(=O)N1N=C(c2ccc(F)cc2)CC1c1cccc(OS(N)(=O)=O)c1 (configuration not stated) | 6.5 | 15.8 | 5230 | – | –
CC(=O)N1N=C(c2ccc([N+](=O)[O-])cc2)CC1c1cccc(OS(N)(=O)=O)c1 (configuration not stated) | 22.9 | 9.4 | 2550 | 20.5 | –
CC(=O)N1N=C(c2ccc(OS(N)(=O)=O)cc2)CC1c1ccccc1 (configuration not stated) | 8.9 | 34.1 | 1310 | – | –
CC(=O)N1N=C(c2cccc(OS(N)(=O)=O)c2)CC1c1c(Cl)cccc1Cl (configuration not stated) | 223 | 63.6 | 1780 | 61.3 | –
COc1ccc(C2CC(c3cccc(OS(N)(=O)=O)c3)=NN2C(C)=O)cc1 (configuration not stated) | 52.4 | 8.7 | 172 | 48.6 | –
CC(=O)N1N=C(c2cccc(OS(N)(=O)=O)c2)CC1c1ccccc1Cl (configuration not stated) | 90.1 | 43.6 | 940 | 74.4 | –
CC(=O)N1N=C(c2ccc(Cl)cc2Cl)CC1c1ccc(OS(N)(=O)=O)cc1 (configuration not stated) | 5.3 | 49.9 | 3520 | 42 | –
CC(=O)N1N=C(c2ccc(OS(N)(=O)=O)cc2)CC1c1ccc(C(F)(F)F)cc1 (configuration not stated) | 0.83 | 29.3 | 2740 | – | –
CC(=O)N1N=C(c2cccc(OS(N)(=O)=O)c2)CC1c1ccc(C(F)(F)F)cc1 (configuration not stated) | 22.2 | 3.7 | 952 | 8.9 | –
CC(=O)N1N=C(c2cccc(OS(N)(=O)=O)c2)CC1c1cccc2ccccc12 (configuration not stated) | 216 | 51.1 | 2240 | 463 | –
COc1ccc(C2=NN(C(C)=O)C(c3ccc(OS(N)(=O)=O)cc3)C2)cc1 (configuration not stated) | 0.42 | 22.8 | 2980 | 9.5 | –
CC(=O)N1N=C(c2ccc(C)cc2)CC1c1cccc(OS(N)(=O)=O)c1 (configuration not stated) | 25.4 | 8.9 | 1540 | 49.8 | –
CC(=O)N1N=C(c2ccc(OS(N)(=O)=O)cc2)CC1c1ccc(Cl)cc1Cl (configuration not stated) | 9.3 | 11.2 | 3750 | 26.2 | –
CC(=O)N1N=C(c2ccc(OS(N)(=O)=O)cc2)CC1c1ccc(F)cc1 (configuration not stated) | 1.5 | 5.9 | 666 | 11.8 | –
CC(=O)N1N=C(c2cccc(OS(N)(=O)=O)c2)CC1c1ccccc1 (configuration not stated) | 39.4 | 29.9 | 188 | 55.1 | –
COc1ccc(C2CC(c3ccc(OS(N)(=O)=O)cc3)=NN2C(C)=O)cc1 (configuration not stated) | 5.3 | 25 | 1610 | 42.6 | –
CC(=O)N1N=C(c2cccc(OS(N)(=O)=O)c2)CC1c1cccc(Cl)c1 (configuration not stated) | 56.9 | 7.3 | 805 | 44.6 | –
CC(=O)N1N=C(c2cccc(OS(N)(=O)=O)c2)CC1c1ccc([N+](=O)[O-])cc1 (configuration not stated) | 134 | 10.1 | 1460 | 20.8 | –
CC(=O)N1N=C(c2ccc(OS(N)(=O)=O)cc2)CC1c1cc(Cl)ccc1Cl (configuration not stated) | 12.4 | 25.5 | 4750 | – | –
